# Measurements from patent publication US20250296953A1, “3,4-THIAZOLO-STEROIDS AND METHODS OF MAKING AND USING THE SAME” (Arkansas State University - Jonesboro, priority 2018, published 2025).
# Read-outs that look alike come from different tables or passages of the source.
# Tests used:
# [1] = test system: glioblastoma (SF-295); assay: NCI 60 five dose screen; conditions: SF-295 (CNS Cancer), five dose
# [2] = test system: HCT-15 (Colon Cancer); assay: NCI 60 one dose screen; assay type: cell-based, human
# [3] = test system: RPMI-8226; assay: NCI 60 five dose screen; conditions: RPMI-8226 (Leukemia), five dose
# [4] = test system: NCI-H522 (NSCLC); assay: NCI 60 one dose screen; assay type: cell-based, human; conditions: Non-small Cell Lung Cancer
# [5] = test system: 60 different human tumor cell lines; conditions: five dose; for CC50: read-out: LC50
# [6] = test system: SF-295; assay: NCI 60 one dose screen; assay type: cell-based, human; conditions: one dose; CNS Cancer; SF-295
# [7] = test system: gliosarcoma (SF-539); assay: NCI 60 five dose screen; conditions: SF-539 (CNS Cancer), five dose
# [8] = A549/ATCC (Non-small Cell Lung Cancer)
# [9] = EKVX (Non-small Cell Lung Cancer)
# [10] = HOP-62 (Non-small Cell Lung Cancer)
# [11] = HOP-92 (Non-small Cell Lung Cancer)
# [12] = MDA-MB-231/ATCC (Breast Cancer)
# [13] = NCI-H23 (Non-small Cell Lung Cancer)
# [14] = NCI-H226 (Non-small Cell Lung Cancer)
# [15] = NCI-H322M (Non-small Cell Lung Cancer)
# [16] = NCI-H460 (Non-small Cell Lung Cancer)
# [17] = NCI-H522 (Non-small Cell Lung Cancer)
smiles,measurement,setting,value
C[C@]12CCc3nc(N)sc3C1=CC[C@@H]1[C@@H]2CC[C@]2(C)C(=NNC(N)=O)CC[C@@H]12 [IVb.1],GI50,[1],1.61 µM
same,TGI,[1],3.03E−6
same,CC50,[1]; read-out: LC50,5.71 µM
same,Growth Percent,[2],−47.82%
same,GI50,[3],0.3 µM
same,TGI,[3],1.37E−6
same,CC50,[3]; read-out: LC50,> 100 µM
same,Growth Percent,[4],−18.57%
same,GI50,[5]; 786-0 (Renal Cancer),1.39 µM
same,TGI,[5]; 786-0 (Renal Cancer),2.82E−6
same,GI50,[5]; A498 (Renal Cancer),2.1 µM
same,TGI,[5]; A498 (Renal Cancer),6.83E−6
same,GI50,[5]; [8],2.02 µM
same,TGI,[5]; [8],3.89E−6
same,GI50,[5]; ACHN (Renal Cancer),1.8 µM
same,TGI,[5]; ACHN (Renal Cancer),3.19E−6
same,GI50,[5]; BT-549 (Breast Cancer),2.84 µM
same,TGI,[5]; BT-549 (Breast Cancer),8.91E−6
same,GI50,[5]; CAKI-1 (Renal Cancer),1.77 µM
same,TGI,[5]; CAKI-1 (Renal Cancer),3.64E−6
same,GI50,[5]; CCRF-CEM (Leukemia),0.28 µM
same,TGI,[5]; CCRF-CEM (Leukemia),1.62E−6
same,GI50,[5]; COLO 205 (Colon Cancer),2.06 µM
same,TGI,[5]; COLO 205 (Colon Cancer),4.37E−6
same,GI50,[5]; DU-145 (Prostate Cancer),1.75 µM
same,TGI,[5]; DU-145 (Prostate Cancer),3.41E−6
same,GI50,[5]; [9],1.8 µM
same,TGI,[5]; [9],3.63E−6
same,GI50,[5]; HCC-2998 (Colon Cancer),1.74 µM
same,TGI,[5]; HCC-2998 (Colon Cancer),3.28E−6
same,GI50,[5]; HCT-15 (Colon Cancer),1.46 µM
same,TGI,[5]; HCT-15 (Colon Cancer),2.86E−6
same,GI50,[5]; HCT-116 (Colon Cancer),2.09 µM
same,TGI,[5]; HCT-116 (Colon Cancer),4.35E−6
same,GI50,[5]; HL-60(TB) (Leukemia),2.73 µM
same,TGI,[5]; HL-60(TB) (Leukemia),7.95E−6
same,GI50,[5]; [10],1.84 µM
same,TGI,[5]; [10],3.47E−6
same,GI50,[5]; [11],1.51 µM
same,TGI,[5]; [11],3.16E−6
same,GI50,[5]; HS 578T (Breast Cancer),2.08 µM
same,TGI,[5]; HS 578T (Breast Cancer),5.15E−6
same,GI50,[5]; HT29 (Colon Cancer),1.88 µM
same,TGI,[5]; HT29 (Colon Cancer),3.73E−6
same,GI50,[5]; IGROV1 (Ovarian Cancer),1.78 µM
same,TGI,[5]; IGROV1 (Ovarian Cancer),3.43E−6
same,GI50,[5]; K-562 (Leukemia),1.81 µM
same,TGI,[5]; K-562 (Leukemia),5.08E−6
same,GI50,[5]; KM12 (Colon Cancer),2.01 µM
same,TGI,[5]; KM12 (Colon Cancer),4.01E−6
same,GI50,[5]; LOX IMVI (Melanoma),1.71 µM
same,TGI,[5]; LOX IMVI (Melanoma),3.12E−6
same,GI50,[5]; M14 (Melanoma),1.94 µM
same,TGI,[5]; M14 (Melanoma),3.77E−6
same,GI50,[5]; MALME-3M (Melanoma),1.76 µM
same,TGI,[5]; MALME-3M (Melanoma),3.49E−6
same,GI50,[5]; MCF7 (Breast Cancer),1.52 µM
same,TGI,[5]; MCF7 (Breast Cancer),3.14E−6
same,GI50,[5]; [12],1.7 µM
same,TGI,[5]; [12],3.43E−6
same,GI50,[5]; MDA-MB-435 (Melanoma),1.33 µM
same,TGI,[5]; MDA-MB-435 (Melanoma),2.70E−6
same,GI50,[5]; MDA-MB-468 (Breast Cancer),1.6 µM
same,TGI,[5]; MDA-MB-468 (Breast Cancer),3.17E−6
same,GI50,[5]; MOLT-4 (Leukemia),2.64 µM
same,TGI,[5]; MOLT-4 (Leukemia),7.02E−6
same,GI50,[5]; [13],1.78 µM
same,TGI,[5]; [13],3.32E−6
same,GI50,[5]; [14],2.09 µM
same,TGI,[5]; [14],4.91E6
same,GI50,[5]; [15],1.77 µM
same,TGI,[5]; [15],3.55E−6
same,GI50,[5]; [16],1.92 µM
same,TGI,[5]; [16],3.61E−6
same,GI50,[5]; [17],1.93 µM
same,TGI,[5]; [17],4.06E−6
same,GI50,[5]; NCI/ADR-RES (Ovarian Cancer),1.94 µM
same,TGI,[5]; NCI/ADR-RES (Ovarian Cancer),3.87E−6
same,GI50,[5]; OVCAR-3 (Ovarian Cancer),1.87 µM
same,TGI,[5]; OVCAR-3 (Ovarian Cancer),3.44E−6
same,GI50,[5]; OVCAR-4 (Ovarian Cancer),1.74 µM
same,TGI,[5]; OVCAR-4 (Ovarian Cancer),3.17E−6
same,GI50,[5]; OVCAR-5 (Ovarian Cancer),1.71 µM
same,GI50,[5]; OVCAR-8 (Ovarian Cancer),1.85 µM
same,TGI,[5]; OVCAR-8 (Ovarian Cancer),3.63E−6
same,GI50,[5]; PC-3 (Prostate Cancer),1.25 µM
same,TGI,[5]; PC-3 (Prostate Cancer),2.75E−6
same,GI50,[5]; RXF 393 (Renal Cancer),1.61 µM
same,TGI,[5]; RXF 393 (Renal Cancer),3.23E−6
same,GI50,[5]; SF-268 (CNS Cancer),1.78 µM
same,TGI,[5]; SF-268 (CNS Cancer),4.11E−6
same,GI50,[5]; SK-MEL-2 (Melanoma),1.98 µM
same,TGI,[5]; SK-MEL-2 (Melanoma),4.58E−6
same,GI50,[5]; SK-MEL-5 (Melanoma),1.57 µM
same,TGI,[5]; SK-MEL-5 (Melanoma),2.97E−6
same,GI50,[5]; SK-MEL-28 (Melanoma),1.63 µM
same,TGI,[5]; SK-MEL-28 (Melanoma),3.10E−6
same,GI50,[5]; SK-OV-3 (Ovarian Cancer),6.21 µM
same,TGI,[5]; SK-OV-3 (Ovarian Cancer),2.23E−6
same,GI50,[5]; SN12C (Renal Cancer),1.89 µM
same,TGI,[5]; SN12C (Renal Cancer),3.45E−6
same,GI50,[5]; SNB-19 (CNS Cancer),1.87 µM
same,TGI,[5]; SNB-19 (CNS Cancer),3.62E−6
same,GI50,[5]; SNB-75 (CNS Cancer),1.58 µM
same,TGI,[5]; SNB-75 (CNS Cancer),3.50E−6
same,GI50,[5]; SW-620 (Colon Cancer),1.69 µM
same,TGI,[5]; SW-620 (Colon Cancer),3.39E−6
same,GI50,[5]; T-47D (Breast Cancer),1.86 µM
same,TGI,[5]; T-47D (Breast Cancer),3.80E−6
same,GI50,[5]; TK-10 (Renal Cancer),2.29 µM
same,TGI,[5]; TK-10 (Renal Cancer),5.45E−6
same,GI50,[5]; U251 (CNS Cancer),1.77 µM
same,TGI,[5]; U251 (CNS Cancer),3.22E−6
same,GI50,[5]; UACC-62 (Melanoma),1.63 µM
same,TGI,[5]; UACC-62 (Melanoma),3.13E−6
same,GI50,[5]; UACC-257 (Melanoma),2.4 µM
same,TGI,[5]; UACC-257 (Melanoma),5.83E−6
same,GI50,[5]; UO-31 (Renal Cancer),1.52 µM
same,TGI,[5]; UO-31 (Renal Cancer),2.88E−6
same,CC50,[5]; 786-0 (Renal Cancer),5.96 µM
same,CC50,[5]; A498 (Renal Cancer),27.8 µM
same,CC50,[5]; [8],7.51 µM
same,CC50,[5]; ACHN (Renal Cancer),5.68 µM
same,CC50,[5]; BT-549 (Breast Cancer),88.5 µM
same,CC50,[5]; CAKI-1 (Renal Cancer),7.49 µM
same,CC50,[5]; CCRF-CEM (Leukemia),> 100 µM
same,CC50,[5]; COLO 205 (Colon Cancer),9.25 µM
same,CC50,[5]; DU-145 (Prostate Cancer),6.66 µM
same,CC50,[5]; [9],7.32 µM
same,CC50,[5]; HCC-2998 (Colon Cancer),6.15 µM
same,CC50,[5]; HCT-15 (Colon Cancer),5.6 µM
same,CC50,[5]; HCT-116 (Colon Cancer),9.07 µM
same,CC50,[5]; HL-60(TB) (Leukemia),> 100 µM
same,CC50,[5]; [10],6.54 µM
same,CC50,[5]; [11],6.6 µM
same,CC50,[5]; HT29 (Colon Cancer),7.41 µM
same,CC50,[5]; IGROV1 (Ovarian Cancer),6.63 µM
same,CC50,[5]; K-562 (Leukemia),40.4 µM
same,CC50,[5]; KM12 (Colon Cancer),6.79 µM
same,CC50,[5]; LOX IMVI (Melanoma),5.72 µM
same,CC50,[5]; M14 (Melanoma),7.31 µM
same,CC50,[5]; MALME-3M (Melanoma),6.9 µM
same,CC50,[5]; MCF7 (Breast Cancer),6.5 µM
same,CC50,[5]; [12],6.9 µM
same,CC50,[5]; MDA-MB-435 (Melanoma),5.49 µM
same,CC50,[5]; MDA-MB-468 (Breast Cancer),6.3 µM
same,CC50,[5]; MOLT-4 (Leukemia),93.3 µM
same,CC50,[5]; [13],6.21 µM
same,CC50,[5]; [14],17.4 µM
same,CC50,[5]; [16],6.79 µM
same,CC50,[5]; [17],8.55 µM
same,CC50,[5]; NCI/ADR-RES (Ovarian Cancer),7.71 µM
same,CC50,[5]; OVCAR-3 (Ovarian Cancer),6.34 µM
same,CC50,[5]; OVCAR-4 (Ovarian Cancer),5.78 µM
same,CC50,[5]; OVCAR-5 (Ovarian Cancer),5.96 µM
same,CC50,[5]; OVCAR-8 (Ovarian Cancer),7.11 µM
same,CC50,[5]; PC-3 (Prostate Cancer),6.01 µM
same,CC50,[5]; RXF 393 (Renal Cancer),6.48 µM
same,CC50,[5]; SF-268 (CNS Cancer),9.48 µM
same,CC50,[5]; SK-MEL-2 (Melanoma),12.4 µM
same,CC50,[5]; SK-MEL-5 (Melanoma),5.61 µM
same,CC50,[5]; SK-MEL-28 (Melanoma),5.88 µM
same,CC50,[5]; SK-OV-3 (Ovarian Cancer),66.7 µM
same,CC50,[5]; SN12C (Renal Cancer),6.33 µM
same,CC50,[5]; SNB-19 (CNS Cancer),7.01 µM
same,CC50,[5]; SNB-75 (CNS Cancer),7.76 µM
same,CC50,[5]; SW-620 (Colon Cancer),8.55 µM
same,CC50,[5]; T-47D (Breast Cancer),7.77 µM
same,CC50,[5]; TK-10 (Renal Cancer),19.3 µM
same,CC50,[5]; U251 (CNS Cancer),5.86 µM
same,CC50,[5]; UACC-62 (Melanoma),5.98 µM
same,CC50,[5]; UACC-257 (Melanoma),25.7 µM
same,CC50,[5]; UO-31 (Renal Cancer),5.44 µM
same,Growth Percent,[6],45.72%
same,GI50,[7],2.05 µM
same,TGI,[7],5.23E−6
same,CC50,[7]; read-out: LC50,19.8 µM
